# Data from US11339120B2, “Phenyl derivatives as cannabinoid receptor 2 agonists” (priority 2015, dated 2022).
# Where two headings read alike, the source gives them in different places.
# Tests used:
# human CB2 receptors = target: T1, human CB2 receptors (Homo sapiens, UniProt P34972); assay: functional cAMP assay, CHO cells expressing human CB2; type: cell-based
# T1 construct: expressed in transfected cells; host or cells: CHO cells
# Description: (§1) CHO cells expressing human CB1 or CB2 receptors are seeded 17-24 hours prior to the experiment 50.000 cells per well in a black 96 well plate with flat clear bottom (Corning Costar #3904) in DMEM (Invitrogen No. 31331), 1×HT supplement, with 10% fetal calf serum and incubated at 5% CO2 and 37° C. in a humidified incubator. The growth medium was exchanged with Krebs Ringer Bicarbonate buffer with 1 mM IBMX and incubated at 30° C. for 30 min. Compounds were added to a final assay volume of 100 μl and incubated for 30 min at 30° C. Using the cAMP-Nano-TRF detection kit the assay (Roche Diagnostics) was stopped by the addition of 50 μl lysis reagent (Tris, NaCl, 1.5% Triton X100, 2.5% NP40, 10% NaN3) and 50 μl detection solutions (20 μM mAb Alexa700-cAMP 1:1, and 48 μM Ruthenium-2-AHA-cAMP) and shaken for 2 h at room temperature. The time-resolved energy transfer is measured by a TRF reader (Evotec Technologies GmbH), equipped with a ND:YAG laser as excitation source. The plate is measured twice with the excitation at 355 nm and at the emission with a delay of 100 ns and a gate of 100 ns, total exposure time 10 s at 730 (bandwidth 30 nm) or 645 nm (bandwidth 75 nm), respectively. The FRET signal is calculated as follows: FRET=T730-Alexa730-P(T645-B645) with P=Ru730-B730/Ru645-B645, where T730 is the test well measured at 730 nM, T645 is the test well measured at 645 nm, B730 and B645 are the buffer controls at 730 nm and 645 nm, respectively. cAMP content is determined from the function of a standard curve spanning from 10 μM to 0.13 nM cAMP.
# (§2) EC50 values were determined using Activity Base analysis (ID Business Solution, Limited). The EC50 values for a wide range of cannabinoid agonists generated from this assay were in agreement with the values published in the scientific literature.
# human CB1 receptors = target: T2, human CB1 receptors (Homo sapiens, UniProt P21554); assay: functional cAMP assay, CHO cells expressing human CB1; type: cell-based
# T2 construct: expressed in transfected cells; host or cells: CHO cells
# T2 sequence (P21554 whole entry): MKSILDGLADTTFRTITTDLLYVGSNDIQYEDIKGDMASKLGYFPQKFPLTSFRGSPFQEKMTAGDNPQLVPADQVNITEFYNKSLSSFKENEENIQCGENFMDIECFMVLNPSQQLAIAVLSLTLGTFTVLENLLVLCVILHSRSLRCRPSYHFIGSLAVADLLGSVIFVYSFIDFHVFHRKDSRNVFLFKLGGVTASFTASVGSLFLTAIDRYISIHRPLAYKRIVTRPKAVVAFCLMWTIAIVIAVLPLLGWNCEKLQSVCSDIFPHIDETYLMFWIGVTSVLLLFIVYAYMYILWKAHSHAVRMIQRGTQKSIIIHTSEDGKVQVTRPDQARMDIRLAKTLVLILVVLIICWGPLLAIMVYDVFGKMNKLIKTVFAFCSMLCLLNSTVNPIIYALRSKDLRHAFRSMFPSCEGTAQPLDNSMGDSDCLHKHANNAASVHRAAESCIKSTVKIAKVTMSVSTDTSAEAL
# Description: as §1, §2
# [1] = functional cAMP assay, CHO cells expressing human CB2, read-out: Human CB2 EC50
# T1 sequence (P34972 whole entry): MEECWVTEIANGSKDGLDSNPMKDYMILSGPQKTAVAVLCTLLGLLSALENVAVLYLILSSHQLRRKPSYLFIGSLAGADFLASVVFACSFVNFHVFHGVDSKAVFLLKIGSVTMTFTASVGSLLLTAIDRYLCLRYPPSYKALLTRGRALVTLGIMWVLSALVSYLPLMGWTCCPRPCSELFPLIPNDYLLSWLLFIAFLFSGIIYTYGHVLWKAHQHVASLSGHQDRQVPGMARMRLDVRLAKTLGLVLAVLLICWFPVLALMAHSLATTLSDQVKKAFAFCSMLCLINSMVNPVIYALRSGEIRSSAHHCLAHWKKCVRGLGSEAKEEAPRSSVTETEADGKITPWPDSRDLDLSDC
SMILES,EC50 (human CB2 receptors; [1]) [nM],EC50 (human CB1 receptors) [nM],EC50 (human CB2 receptors) [nM]
"CCC(CC)(NC(=O)c1ccc(C2CC2)c(OCC2CC2)c1)C(=O)O [Example 8, 2-[4-Cyclopropyl-3-(cyclopropylmethoxy)benzamido]-2-ethylbutanoic acid]",2170,> 10000,
"C[C@](CC(N)=O)(NC(=O)c1ccc(C2CC2)c(OCCF)c1)C1CC1 [Example 45, N-[(2R)-4-Amino-2-cyclopropyl-4-oxobutan-2-yl]-4-cyclopropyl-3-(2-fluoroethoxy)benzamide]",,> 10000,7.42
"Cc1nc([C@@](C)(CS(C)(=O)=O)NC(=O)c2ccc(C3CC3)c(OCC(F)(F)F)c2)no1 [Example 29, 4-Cyclopropyl-N-[(2S)-1-(methanesulfonyl)-2-(5-methyl-1,2,4-oxadiazol-3-yl)propan-2-yl]-3-(2,2,2-trifluoroethoxy)benzamide]",,> 10000,149
"C[C@](CC(N)=O)(NC(=O)c1ccc(C2CC2)c(OCC(F)(F)F)c1)C1CC1 [Example 36, (+)-N-[4-amino-2-cyclopropyl-4-oxobutan-2-yl]-4-cyclopropyl-3-(2,2,2-trifluoroethoxy)benzamide]",,> 10000,33.9
"C[C@](CC(N)=O)(NC(=O)c1ccc(C2CC2)c(N2CCC(F)(F)C2)c1)C1CC1 [Example 61, N-[(2R)-4-Amino-2-cyclopropyl-4-oxobutan-2-yl]-4-cyclopropyl-3-(3,3-difluoropyrrolidin-1-yl)benzamide]",,1790,2.5
"CC1(C(CC(N)=O)NC(=O)c2ccc(C3CC3)c(OCC(F)(F)F)c2)COC1 (stereo not shown) [Example 69, N-[3-Amino-1-(3-methyloxetan-3-yl)-3-oxopropyl]-4-cyclopropyl-3-(2,2,2-trifluoroethoxy)benzamide]",1180,> 10000,
"CC(C)(NC(=O)c1ccc(C2CC2)c(OCC2CC2)c1)c1nccs1 [Example 6, 4-Cyclopropyl-3-(cyclopropylmethoxy)-N-[2-(1,3-thiazol-2-yl)propan-2-yl]benzamide]",,539,26
"CC(C)Oc1cc(C(=O)N2CC(F)(F)C[C@H]2C(N)=O)ccc1C1CC1 [Example 48, 1-{4-Cyclopropyl-3-[(propan-2-yl)oxy]benzoyl}-4,4-difluoro-L-prolinamide]",377,> 10000,
"CC(C)(C)c1noc(-c2ccc(C3CC3)c(N3CCC(F)(F)C3)c2)n1 [Example 47, 3-tert-Butyl-5-[4-cyclopropyl-3-(3,3-difluoropyrrolidin-1-yl)phenyl]-1,2,4-oxadiazole]",,> 10000,5.33
"Cc1nc([C@@](C)(CC2CC2)NC(=O)c2ccc(C3CC3)c(OC(C)C)c2)no1 [Example 49, 4-Cyclopropyl-N-[(2R)-1-cyclopropyl-2-(5-methyl-1,2,4-oxadiazol-3-yl)propan-2-yl]-3-[(propan-2-yl)oxy]benzamide]",,> 10000,42.1
"CNC(=O)[C@@H](NC(=O)c1ccc(C2CC2)c(OC(C)C)c1)C(C)(C)C [Example 37, 4-Cyclopropyl-N-[(2S)-3,3-dimethyl-1-(methylamino)-1-oxobutan-2-yl]-3-[(propan-2-yl)oxy]benzamide]",,> 10000,5.33
"C[C@@](CC(N)=O)(NC(=O)c1ccc(C2CC2)c(N2CCC(F)(F)C2)c1)C1CC1 [Example 62, N-[(2S)-4-Amino-2-cyclopropyl-4-oxobutan-2-yl]-4-cyclopropyl-3-(3,3-difluoropyrrolidin-1-yl)benzamide]",,> 10000,25.9
"Cc1nc([C@@](C)(CC2CC2)NC(=O)c2ccc(C3CC3)c(OCC(F)F)c2)no1 [Example 31, (−)-4-Cyclopropyl-N-[1-cyclopropyl-2-(5-methyl-1,2,4-oxadiazol-3-yl)propan-2-yl]-3-(2,2-difluoroethoxy)benzamide]",,> 10000,16.6
"CC(C)C[C@H](NC(=O)c1ccc(C2CC2)c(OCC2CC2)c1)C(N)=O [Example 4, N^2-[4-Cyclopropyl-3-(cyclopropylmethoxy)benzoyl]-L-leucinamide]",,> 10000,18
"Cc1nc(C(C)(C)NC(=O)c2ccc(C)c(OCC3CC3)c2)no1 [Example 2, 3-(Cyclopropylmethoxy)-4-methyl-N-[2-(5-methyl-1,2,4-oxadiazol-3-yl)propan-2-yl]benzamide]",492,> 10000,
"CCOC(=O)C(CC)(CC)NC(=O)c1ccc(C2CC2)c(OCC2CC2)c1 [Example 7, Ethyl 2-[4-cyclopropyl-3-(cyclopropylmethoxy)benzamido]-2-ethylbutanoate]",,> 10000,1.44
"Cc1nc([C@](C)(CS(C)(=O)=O)NC(=O)c2ccc(C3CC3)c(OCC(F)(F)F)c2)no1 [Example 28, 4-Cyclopropyl-N-[(2R)-1-(methanesulfonyl)-2-(5-methyl-1,2,4-oxadiazol-3-yl)propan-2-yl]-3-(2,2,2-trifluoroethoxy)benzamide]",,> 10000,79.9
"CNC(=O)[C@@H](NC(=O)c1ccc(C2CC2)c(-c2ccc(F)nc2)c1)C(C)(C)C [Example 58, 4-Cyclopropyl-N-[(2S)-3,3-dimethyl-1-(methylamino)-1-oxobutan-2-yl]-3-(6-fluoropyridin-3-yl)benzamide]",,388,11.8
"C[C@@](CC(N)=O)(NC(=O)c1ccc(C2CC2)c(-c2ccc(F)nc2)c1)C1CC1 [Example 53, N-[(2S)-4-Amino-2-cyclopropyl-4-oxobutan-2-yl]-4-cyclopropyl-3-(6-fluoropyridin-3-yl)benzamide]",,> 10000,184
"Cc1nc([C@](C)(CC2CC2)NC(=O)c2ccc(C3CC3)c(OCC(F)(F)F)c2)no1 [Example 26, (+)-4-Cyclopropyl-N-[1-cyclopropyl-2-(5-methyl-1,2,4-oxadiazol-3-yl)propan-2-yl]-3-(2,2,2-trifluoroethoxy)benzamide]",,> 10000,36.3
"Cc1ccc(C(=O)N[C@@H](CC(C)C)C(N)=O)cc1OCC1CC1 [Example 1, N-[(2S)-1-amino-4-methyl-1-oxopentan-2-yl]-3-(cyclopropylmethoxy)-4-methylbenzamide]",136,> 10000,
"Cc1nc([C@@](C)(CS(C)(=O)=O)NC(=O)c2ccc(C3CC3)c(OCC3CC3)c2)no1 [Example 20, 4-Cyclopropyl-3-(cyclopropylmethoxy)-N-[(2S)-1-(methanesulfonyl)-2-(5-methyl-1,2,4-oxadiazol-3-yl)propan-2-yl]benzamide]",,> 10000,31.3
"Cc1nc([C@](C)(CC2CC2)NC(=O)c2ccc(C3CC3)c(OCCF)c2)no1 [Example 34, (+)-4-Cyclopropyl-N-[1-cyclopropyl-2-(5-methyl-1,2,4-oxadiazol-3-yl)propan-2-yl]-3-(2-fluoroethoxy)benzamide]",,> 10000,57
"NC(=O)[C@@H]1CC(F)(F)CN1C(=O)c1ccc(C2CC2)c(N2CCC(F)(F)C2)c1 [Example 65, 1-[4-Cyclopropyl-3-(3,3-difluoropyrrolidin-1-yl)benzoyl]-4,4-difluoro-L-prolinamide]",,> 10000,18.1
"CC(C)(CO)NC(=O)c1ccc(C2CC2)c(OCC2CC2)c1 [Example 5, 4-Cyclopropyl-3-(cyclopropylmethoxy)-N-(1-hydroxy-2-methylpropan-2-yl)benzamide]",130,> 10000,
"CC(C)(C)c1nc(-c2ccc(C3CC3)c(OCCF)c2)no1 [Example 30, 5-tert-Butyl-3-[4-cyclopropyl-3-(2-fluoroethoxy)phenyl]-1,2,4-oxadiazole]",,> 10000,38.3
"Cc1nc([C@](C)(CC2CC2)NC(=O)c2ccc(C3CC3)c(-c3ccc(F)nc3)c2)no1 [Example 60, 4-Cyclopropyl-N-[(2S)-1-cyclopropyl-2-(5-methyl-1,2,4-oxadiazol-3-yl)propan-2-yl]-3-(6-fluoropyridin-3-yl)benzamide]",,> 10000,98.4
"Cc1nc([C@](C)(CC2CC2)NC(=O)c2ccc(C3CC3)c(-c3ccnn3C)c2)no1 [Example 59, 4-Cyclopropyl-N-[(2S)-1-cyclopropyl-2-(5-methyl-1,2,4-oxadiazol-3-yl)propan-2-yl]-3-(1-methyl-1H-pyrazol-5-yl)benzamide]",282,> 10000,
"Cc1nc([C@](C)(CC2CC2)NC(=O)c2ccc(C3CC3)c(OC(C)C)c2)no1 (single isomer, unassigned) [Example 38, 4-Cyclopropyl-N-[(2S)-1-cyclopropyl-2-(5-methyl-1,2,4-oxadiazol-3-yl)propan-2-yl]-3-[(propan-2-yl)oxy]benzamide or enantiomer]",,> 10000,26.6
